Laboratory results from EP4541815A1, “ANTIBODY AGAINST HEPATITIS B VIRUS, PREPARATION THEREOF AND USE THEREOF” (priority 2022, dated 2023).

Tested on: HBV D genotype
Assay: Antiviral activity in HBV-infected liver-humanized chimeric hFRG mouse model, plasma HBV DNA by qPCR
Format: in vivo
Conditions: hFRG mice
Experimental: To investigate the therapeutic efficacy of afuco-A14 GA LS against established HBV infection, the efficacy of afuco-A14 GA LS administered alone and in combination with entecavir, was evaluated in a liver-humanized chimeric hFRG (Fah^-/- Rag2^-/- /IL2rg^-/-) mouse model. Entecavir is a hepatitis B virus reverse transcriptase inhibitor that treats hepatitis B by inhibiting viral replication. The disadvantage of entecavir is the rebound of viral replication upon discontinuation of treatment.
A control group (saline), an afuco-A14 GA LS monotherapy group (10 mg/kg), an entecavir (ETV) monotherapy group (ETV, 0.1 mg/kg), and a combination therapy group of afuco-A14 GA LS (10 mg/kg) and entecavir (0.1 mg/kg) were set up in the experiment, respectively. Mice were administered (afuco-A14 GALS was administered subcutaneously and ETV was administered orally) starting on day 28 (D28) post HBV infection (HBV D genotype, 2 × 10^9 GE/mouse). Thereafter, afuco-A14 GA LS was administered subcutaneously once a week (D35, D42, D49, D56, D63, and D70), while ETV was administered once a day until D70. The observation period continued after discontinuation until D91.
Plasma from experimental mice was collected by venous blood sampling, and then qPCR was used to quantitatively detect the level of HBV DNA in the plasma of the mice. […]

C=C1[C@H](CO)[C@@H](O)C[C@@H]1n1cnc2c(=O)[nH]c(N)nc21 [ETV, entecavir]
reduction of mean viral titre at the end of the study (D91) compared to the starting point of treatment (D28) (21 days post-discontinuation, afuco-A14 GA LS 10 mg/kg s.c., ETV 0.1 mg/kg oral): 7.15 fold | decrease of viral DNA levels at the final dose (D70) (treatment D28 to D70, afuco-A14 GA LS 10 mg/kg s.c. once a week, ETV 0.1 mg/kg oral once a day, compared to control group (saline)): ~436 fold
